Measurements from PMC8480901 (PLoS ONE, 2021).
Where “and” joins values, the source holds several entries; their conditions need not be identical. Identical values can stand only once.

System: human PBMCs
Test: LPS-induced cytokine and chemokine levels in human PBMC supernatant (Luminex, ELISA)
Format: cell-based
Conditions: for CCl2, % reduction / CXCL1 % reduction / CXCL2 % reduction / MMP9 % reduction / CCl2, Mean / CXCL1, Mean / CXCL2, Mean / MMP9, Mean / CCl2, individual value / CXCL1, individual value / CXCL2, individual value / MMP9, individual value: LPS-stimulated PBMC supernatant; for CCl2, Mean / CXCL1, Mean / CXCL2, Mean / MMP9, Mean: sample size 2; for CCl2, individual value / CXCL1, individual value / CXCL2, individual value / MMP9, individual value: single replicate; for IL-1β % reduction / IL-1β [pg/mL], Mean / IL-1β [pg/mL], individual value / IL-6 % reduction / IL-6 [pg/mL], Mean / IL-6 [pg/mL], individual value / IL-8 % reduction / IL-8 [pg/mL], Mean / IL-8 [pg/mL], individual value / TNF-α % reduction / TNF-α [pg/mL], Mean / TNF-α [pg/mL], individual value: LPS-stimulated human PBMC supernatant

## C[C@@H]1C[C@H]2[C@@H]3CCC4=CC(=O)C=C[C@]4(C)[C@@]3(F)[C@@H](O)C[C@]2(C)[C@@]1(O)C(=O)CO [Dexamethasone]
0.0003 µM
  CCl2, % reduction: -4.68%
  CXCL1 % reduction: -4%
  CXCL2 % reduction: 4%
  MMP9 % reduction: 3.74%
  CCl2, Mean: 1323 pg/mL
  CXCL1, Mean: 6192 pg/mL
  CXCL2, Mean: 4849 pg/mL
  MMP9, Mean: 2934 pg/mL
  CCl2, individual value: 1383 pg/mL and 1264 pg/mL
  CXCL1, individual value: 6146 pg/mL and 6238 pg/mL
  CXCL2, individual value: 4762 pg/mL and 4936 pg/mL
  MMP9, individual value: 2852 pg/mL and 3016 pg/mL
  IL-1β % reduction: -0.241%
  IL-1β [pg/mL], Mean: 12816 pg/mL
  IL-1β [pg/mL], individual value: 13584 pg/mL and 12048 pg/mL
  IL-6 % reduction: 11%
  IL-6 [pg/mL], Mean: 31175 pg/mL
  IL-6 [pg/mL], individual value: 28443 pg/mL and 33908 pg/mL
  IL-8 % reduction: 3.74%
  IL-8 [pg/mL], Mean: 2934 pg/mL
  IL-8 [pg/mL], individual value: 2852 pg/mL and 3016 pg/mL
  TNF-α % reduction: -22%
  TNF-α [pg/mL], Mean: 10856 pg/mL
  TNF-α [pg/mL], individual value: 11484 pg/mL and 10228 pg/mL
0.001 µM
  CCl2, % reduction: 0.423%
  CXCL1 % reduction: 1.28%
  CXCL2 % reduction: 3%
  MMP9 % reduction: 7%
  CCl2, Mean: 1261 pg/mL
  CXCL1, Mean: 5877 pg/mL
  CXCL2, Mean: 4905 pg/mL
  MMP9, Mean: 2887 pg/mL
  CCl2, individual value: 1275 pg/mL and 1246 pg/mL
  CXCL1, individual value: 5806 pg/mL and 5947 pg/mL
  CXCL2, individual value: 4830 pg/mL and 4980 pg/mL
  MMP9, individual value: 2894 pg/mL and 2879 pg/mL
  IL-1β % reduction: -2.29%
  IL-1β [pg/mL], Mean: 13078 pg/mL
  IL-1β [pg/mL], individual value: 12492 pg/mL and 13663 pg/mL
  IL-6 % reduction: 15%
  IL-6 [pg/mL], Mean: 29537 pg/mL
  IL-6 [pg/mL], individual value: 27758 pg/mL and 31316 pg/mL
  IL-8 % reduction: 7%
  IL-8 [pg/mL], Mean: 2887 pg/mL
  IL-8 [pg/mL], individual value: 2894 pg/mL and 2879 pg/mL
  TNF-α % reduction: 26%
  TNF-α [pg/mL], Mean: 6648 pg/mL
  TNF-α [pg/mL], individual value: 6422 pg/mL and 6874 pg/mL
0.003 µM
  CCl2, % reduction: 17%
  CXCL1 % reduction: 6%
  CXCL2 % reduction: 4%
  MMP9 % reduction: 16%
  CCl2, Mean: 1056 pg/mL
  CXCL1, Mean: 5588 pg/mL
  CXCL2, Mean: 4851 pg/mL
  MMP9, Mean: 2739 pg/mL
  CCl2, individual value: 1044 pg/mL and 1067 pg/mL
  CXCL1, individual value: 5506 pg/mL and 5671 pg/mL
  CXCL2, individual value: 4888 pg/mL and 4814 pg/mL
  MMP9, individual value: 2727 pg/mL and 2751 pg/mL
  IL-1β % reduction: 3%
  IL-1β [pg/mL], Mean: 12382 pg/mL
  IL-1β [pg/mL], individual value: 12441 pg/mL and 12322 pg/mL
  IL-6 % reduction: 23%
  IL-6 [pg/mL], Mean: 26733 pg/mL
  IL-6 [pg/mL], individual value: 25302 pg/mL and 28163 pg/mL
  IL-8 % reduction: 16%
  IL-8 [pg/mL], Mean: 2739 pg/mL
  IL-8 [pg/mL], individual value: 2727 pg/mL and 2751 pg/mL
  TNF-α % reduction: 36%
  TNF-α [pg/mL], Mean: 5707 pg/mL
  TNF-α [pg/mL], individual value: 6398 pg/mL and 5017 pg/mL
0.01 µM
  CCl2, % reduction: 33%
  CXCL1 % reduction: 16%
  CXCL2 % reduction: 17%
  MMP9 % reduction: 23%
  CCl2, Mean: 860 pg/mL
  CXCL1, Mean: 5032 pg/mL
  CXCL2, Mean: 4217 pg/mL
  MMP9, Mean: 2621 pg/mL
  CCl2, individual value: 863 pg/mL and 858 pg/mL
  CXCL1, individual value: 4889 pg/mL and 5174 pg/mL
  CXCL2, individual value: 4342 pg/mL and 4092 pg/mL
  MMP9, individual value: 2587 pg/mL and 2655 pg/mL
  IL-1β % reduction: 12%
  IL-1β [pg/mL], Mean: 11212 pg/mL
  IL-1β [pg/mL], individual value: 11146 pg/mL and 11278 pg/mL
  IL-6 % reduction: 26%
  IL-6 [pg/mL], Mean: 25776 pg/mL
  IL-6 [pg/mL], individual value: 24216 pg/mL and 27336 pg/mL
  IL-8 % reduction: 23%
  IL-8 [pg/mL], Mean: 2621 pg/mL
  IL-8 [pg/mL], individual value: 2587 pg/mL and 2655 pg/mL
  TNF-α % reduction: 34%
  TNF-α [pg/mL], Mean: 5893 pg/mL
  TNF-α [pg/mL], individual value: 5929 pg/mL and 5857 pg/mL
0.03 µM
  CCl2, % reduction: 46%
  CXCL1 % reduction: 25%
  CXCL2 % reduction: 30%
  MMP9 % reduction: 24%
  CCl2, Mean: 701 pg/mL
  CXCL1, Mean: 4474 pg/mL
  CXCL2, Mean: 3565 pg/mL
  MMP9, Mean: 2601 pg/mL
  CCl2, individual value: 757 pg/mL and 644 pg/mL
  CXCL1, individual value: 4471 pg/mL and 4477 pg/mL
  CXCL2, individual value: 3377 pg/mL and 3753 pg/mL
  MMP9, individual value: 2572 pg/mL and 2630 pg/mL
  IL-1β % reduction: 36%
  IL-1β [pg/mL], Mean: 8206 pg/mL
  IL-1β [pg/mL], individual value: 8428 pg/mL and 7983 pg/mL
  IL-6 % reduction: 46%
  IL-6 [pg/mL], Mean: 19008 pg/mL
  IL-6 [pg/mL], individual value: 18119 pg/mL and 19897 pg/mL
  IL-8 % reduction: 24%
  IL-8 [pg/mL], Mean: 2601 pg/mL
  IL-8 [pg/mL], individual value: 2572 pg/mL and 2630 pg/mL
  TNF-α % reduction: 61%
  TNF-α [pg/mL], Mean: 3547 pg/mL
  TNF-α [pg/mL], individual value: 4619 pg/mL and 2475 pg/mL
0.1 µM
  CCl2, % reduction: 56%
  CXCL1 % reduction: 35%
  CXCL2 % reduction: 40%
  MMP9 % reduction: 39%
  CCl2, Mean: 584 pg/mL
  CXCL1, Mean: 3861 pg/mL
  CXCL2, Mean: 3024 pg/mL
  MMP9, Mean: 2364 pg/mL
  CCl2, individual value: 488 pg/mL and 679 pg/mL
  CXCL1, individual value: 3279 pg/mL and 4443 pg/mL
  CXCL2, individual value: 2644 pg/mL and 3404 pg/mL
  MMP9, individual value: 2111 pg/mL and 2616 pg/mL
  IL-1β % reduction: 49%
  IL-1β [pg/mL], Mean: 6554 pg/mL
  IL-1β [pg/mL], individual value: 6360 pg/mL and 6748 pg/mL
  IL-6 % reduction: 46%
  IL-6 [pg/mL], Mean: 18754 pg/mL
  IL-6 [pg/mL], individual value: 18604 pg/mL and 18905 pg/mL
  IL-8 % reduction: 39%
  IL-8 [pg/mL], Mean: 2364 pg/mL
  IL-8 [pg/mL], individual value: 2111 pg/mL and 2616 pg/mL
  TNF-α % reduction: 76%
  TNF-α [pg/mL], Mean: 2172 pg/mL
  TNF-α [pg/mL], individual value: 1964 pg/mL and 2380 pg/mL
0.3 µM
  CCl2, % reduction: 55%
  CXCL1 % reduction: 32%
  CXCL2 % reduction: 49%
  MMP9 % reduction: 26%
  CCl2, Mean: 591 pg/mL
  CXCL1, Mean: 4087 pg/mL
  CXCL2, Mean: 2585 pg/mL
  MMP9, Mean: 2569 pg/mL
  CCl2, individual value: 580 pg/mL and 603 pg/mL
  CXCL1, individual value: 3996 pg/mL and 4178 pg/mL
  CXCL2, individual value: 2570 pg/mL and 2599 pg/mL
  MMP9, individual value: 2679 pg/mL and 2458 pg/mL
  IL-1β % reduction: 47%
  IL-1β [pg/mL], Mean: 6792 pg/mL
  IL-1β [pg/mL], individual value: 7094 pg/mL and 6491 pg/mL
  IL-6 % reduction: 53%
  IL-6 [pg/mL], Mean: 16544 pg/mL
  IL-6 [pg/mL], individual value: 15027 pg/mL and 18061 pg/mL
  IL-8 % reduction: 26%
  IL-8 [pg/mL], Mean: 2569 pg/mL
  IL-8 [pg/mL], individual value: 2679 pg/mL and 2458 pg/mL
  TNF-α % reduction: 67%
  TNF-α [pg/mL], Mean: 2969 pg/mL
  TNF-α [pg/mL], individual value: 3059 pg/mL and 2880 pg/mL
1 µM
  CCl2, % reduction: 58%
  CXCL1 % reduction: 32%
  CXCL2 % reduction: 48%
  MMP9 % reduction: 46%
  CCl2, Mean: 551 pg/mL
  CXCL1, Mean: 4042 pg/mL
  CXCL2, Mean: 2659 pg/mL
  MMP9, Mean: 2244 pg/mL
  CCl2, individual value: 591 pg/mL and 510 pg/mL
  CXCL1, individual value: 4057 pg/mL and 4026 pg/mL
  CXCL2, individual value: 2573 pg/mL and 2746 pg/mL
  MMP9, individual value: 2290 pg/mL and 2198 pg/mL
  IL-1β % reduction: 47%
  IL-1β [pg/mL], Mean: 6720 pg/mL
  IL-1β [pg/mL], individual value: 7115 pg/mL and 6325 pg/mL
  IL-6 % reduction: 53%
  IL-6 [pg/mL], Mean: 16339 pg/mL
  IL-6 [pg/mL], individual value: 14576 pg/mL and 18103 pg/mL
  IL-8 % reduction: 46%
  IL-8 [pg/mL], Mean: 2244 pg/mL
  IL-8 [pg/mL], individual value: 2290 pg/mL and 2198 pg/mL
  TNF-α % reduction: 74%
  TNF-α [pg/mL], Mean: 2402 pg/mL
  TNF-α [pg/mL], individual value: 1732 pg/mL and 3073 pg/mL
Human PBMCs, 0.0003-1 µM
  all measured LPS-induced cytokines and chemokines in supernatant: dose-dependent reductions
